Data set [1] deals with CALR. The data set can be described thus: RT-qPCR expression of CALR gene in HEKa. Conditions: 0.01 mg/mL.
Method: HEKa cells were incubated in the presence of 0.01 mg/mL cycled peptide B for 24 hours and HDFa cells were treated with 0.05 mg/mL of cycled peptide B for 6 h. Then, cells were lysed, and RNA was extracted (RNeasy mini kit, Qiagen). Purified RNAs were retro-transcribed (High-capacity cDNA reverse transcription kit, Applied Biosystems). RT-qPCR was performed with the panel of TaqMan assay probes (Thermo Fisher Scientific) using StepOne plus Real time PCR instrument. […] The obtained data were analyzed using the ΔΔCt method, which provides the target gene expression values as fold changes in the treated sample compared with an untreated basal sample. Both samples were normalized with the relative expression of the housekeeping gene GAPDH.
Additionally, expression of CALR after treatment with 0.01 mg/mL of cycled peptides A and B for 24 hours in HEKa cells was analyze by qPCR as described in example 3.
Data set [2] has as its system COL3A1, COL5A1, COL6A1, COL7A1, COL1A1 and COL4A1. As to the kind of experiment: qPCR expression of collagen genes in HDFa. It counts as cell-based, human. The settings on record: 6 hours, 0.001 mg/mL (COL3A1, COL5A1, COL6A1, COL7A1) or 0.1 mg/mL (COL1A1, COL4A1), compared with linear form (Figure 6A, 6B). As to the method:
HDFa cells were seeded in duplicate (n=2) in 12-well plates at a concentration of 200.000 cells/well in 106 Medium supplemented with 2% LSGS. Then, cells were incubated at 37 °C in a humidified atmosphere with 5% CO2. Next, cells were treated with cycled peptide B at different non-toxic concentrations for 6 or 24 hours. Untreated cells were used as basal control. Cells were then lysed, and replicates were pooled together for RNA extraction using Qiagen RNeasy Mini kit following manufacturer's instructions. Purified RNAs was then quantified by nanodrop, adjusted in concentration and processed for retrotranscription to cDNA using a commercially available kit (High-Capacity cDNA Reverse Transcription kit - Thermofisher Scientific, USA). Resulting cDNA was used to perform a RTqPCR using Taqman technology, and a panel of probes designed to target different type of collagens and their respective matrix metalloproteinases.
The expression of collagen genes in HDFa cells was measured by qPCR.
In general terms: Real-time PCR tracks product formation cycle by cycle.

The test system of data set [3] is ITGA5. As to the kind of experiment: RT-qPCR expression of aging-related gene ITGA5 in HEKa. It counts as cell-based, human. The settings on record: 0.01 mg/mL, 24 h.
Method: Then, cells were lysed, and RNA was extracted (RNeasy mini kit, Qiagen). Purified RNAs were retro-transcribed (High-capacity cDNA reverse transcription kit, Applied Biosystems). RT-qPCR was performed with the panel of TaqMan assay probes (Thermo Fisher Scientific) using StepOne plus Real time PCR instrument. […] The obtained data were analyzed using the ΔΔCt method, which provides the target gene expression values as fold changes in the treated sample compared with an untreated basal sample. Both samples were normalized with the relative expression of the housekeeping gene GAPDH.

SMILES strings stand for the structures.

With `CC(C)C[C@@H]1NC(=O)[C@H](C)NC(=O)[C@H](Cc2c[nH]cn2)NC(=O)[C@H](Cc2c[nH]c3ccccc23)NC(=O)[C@H](Cc2ccccc2)NC(=O)[C@H](CCCNC(=N)N)NC1=O` [Peptide B, cyclo-Phe-Trp- His- Ala-Leu-Arg], the “CALR expression, Effect” value in data set [1] (24 hours, qPCR (Table 5)) is listed as “Upregulation”. Further, in data set [1] (24 hours, qPCR (Table 5), Basal = 1.00), the “CALR expression, Ratio” value turned out to be 1.78. Besides, the “Fold change vs. Basal” value in data set [1] (CALR, 24 h (Table 3)) was found to be 2.67; in data set [3], 1.84. Further, the Mean normalized expression in data set [1] (CALR, 24 h, normalized to GAPDH) is reported as 6.83E-01; in data set [3] (normalized to GAPDH), 1.15E-01. In addition, the “expression of collagen genes” value in data set [2] is on record as “improves the induction of collagen-related genes”.

These data come from patent EP4417190A1, “CYCLIC PEPTIDES WITH ANTI-AGING EFFICACY” (Lipotrue, S.L., priority 2023, dated 2024).
